Test results from patent publication US20100068747A1, “Generic Assay for Monitoring Endocytosis” (Evotec Technologies GmbH, priority 2005, published 2010).
Entries after “also recorded” stand apart in the source; their conditions may differ.

What was measured:
U2OS/ETAR-GFP cells [1] = test: Internalization pathway analysis in U2OS/ETAR-GFP cells; assay type: cell-based, human
Method: With regard to the internalization pathway analysis in U2OS/ETAR-GFP cells, RDE was inhibited by including 5 mM β-methyl-cyclodextrin (CD) in the leveling medium. The following labeling and chase incubations were conducted in standard assay medium. For inhibition of clathrin mediated endocytosis cells were subjected to hypotonic shock by incubating 5 minutes at 37° C. in a 1:1 starvation medium-ddH2O mixture and then were transferred into a potassium (K^+) depleted assay medium for temperature leveling. The following labeling and chase incubations were also conducted in K^+ depleted assay medium, which was prepared by substituting sodium salts for all potassium salts in HBSS. Inhibition of both pathways was achieved by combining both methods and including 5 mM CD in the leveling medium for CLAME inhibition. For CLAME controls, 5 μg/ml Alexa Fluor 488 conjugated transferrin was included during the labeling period for all inhibited pathway scenarios. Protocol procedures were conducted as described, however, lectins were omitted in the labeling step. For lipid raft-dependent pathways there were no control markers available.

live cells = test: Signal transformation on live cells after labeling with fluorescent lectins (all cell lines); assay type: cell-based; details: all experiments
Method: Lectin labeling of live cells was conducted as follows: Cells were seeded as described above. After 24 hours cells were washed once with PBS and incubated in the incubator for another 2 hours in the respective standard medium without serum supplement to deprive them of serum factor mediated stimuli. This step was termed starvation period. Subsequently, cells were washed gently with PBS and incubated with 37° C. tempered assay medium comprised of Hank's Balanced Salt Solution (HBSS) pH 7.4, containing 20 mM HEPES and 30 mM D-glucose. The plate was left at RT for 30 minutes to slowly level its temperature and, thus, avoid capturing of temperature drop induced membrane dynamics. This period was termed leveling period. Then, assay medium was withdrawn and wells refilled with TRITC-lectin solutions at RT to start cell labeling. Several lectin concentrations in the low nano-molar range were tested. Molar concentrations were calculated from the data provided by Vector Labs. […] Instantly thereafter, fluorescence signals were monitored predominately using the epifluorescence microscope.
The following microscopy and image analysis techniques were employed. […] Utilizing the Opera confocal fluorescence imager, the instrument was calibrated running standard methods for skew cropping (spatial camera alignments) and camera intensity normalization.

U2OS/ETAR-GFP cells [2] = test: Lectin labeling of live cells, U2OS/ETAR-GFP; assay type: cell-based, human; details: TRITC-lectin, 10 nM at maximum
Method: (§1) Lectin labeling of live cells was conducted as follows: Cells were seeded as described above. After 24 hours cells were washed once with PBS and incubated in the incubator for another 2 hours in the respective standard medium without serum supplement to deprive them of serum factor mediated stimuli. This step was termed starvation period. Subsequently, cells were washed gently with PBS and incubated with 37° C. tempered assay medium comprised of Hank's Balanced Salt Solution (HBSS) pH 7.4, containing 20 mM HEPES and 30 mM D-glucose. The plate was left at RT for 30 minutes to slowly level its temperature and, thus, avoid capturing of temperature drop induced membrane dynamics. This period was termed leveling period. Then, assay medium was withdrawn and wells refilled with TRITC-lectin solutions at RT to start cell labeling. Several lectin concentrations in the low nano-molar range were tested. Molar concentrations were calculated from the data provided by Vector Labs. The plate was placed on a rotating shaker at low revolutions for 10 minutes while incubating. The start of the lectin incubation is referred to as assay starting point with t=0 min. After the 10 min incubation period the cells were gently washed with PBS and wells refilled with assay buffer at RT. Instantly thereafter, fluorescence signals were monitored predominately using the epifluorescence microscope.
(§2) The following microscopy and image analysis techniques were employed. When utilizing the epifluorescence microscope magnifications were adjusted according to the purpose of observation, e.g. single cell vs. cell collective. Concerning the filters U-MNU was used for Hoechst, U-MSWB for GFP, and U-N41007 for TRITC detection. Hoechst images were taken at 50 ms exposure time, GFP images at 100 to 200 ms and TRITC images needed 500 to 1000 ms. Overlay images were assembled with AnalySIS and tuned in color intensity to obtain the desired color contrast. Images taken to compare two experimental conditions, e.g. control vs. stimulus, featured identical exposure parameters. If possible, well areas were chosen that reflect similar states of confluence. Utilizing the Opera confocal fluorescence imager, the instrument was calibrated running standard methods for skew cropping (spatial camera alignments) and camera intensity normalization.

CHO/PAR-2 cells [3] = test: Lectin labeling of fixed cells, CHO/PAR-2; assay type: cell-based; details: TRITC-lectin 10 nM and 20 nM
Method: (§3) Lectin labeling of fixed cells was conducted as follows: To detach confluent cells in order to prepare experiments for internalization studies, cells were always treated with EDTA solution instead of trypsin solution. For all seeding, washing, and labeling steps in 96-well plates a working volume of 100 μl per well was assessed. Cells were seeded out into a 96-well plate at different concentrations. U2OS/ETAR-GFP suspensions were adjusted to yield 2*10^4 cells/well, both of the CHO cell lines must be at 2.5*10^4 cells/well. Cells became confluent after 24 hours of incubation. In the following, they were washed with phosphate buffered saline (PBS) and fixed with 3% PFA for 20 minutes at RT. Then, cells were washed again with PBS and incubated in 10 nM and 20 nM solutions of each TRITC-lectin candidate in PBS, respectively. Again, cells were washed with PBS to remove excess lectin, and wells were refilled with PBS for analysis. For specificity controls, lectin solutions were incubated for 30 minutes prior to the application with an excess of the monosaccharide that represents the respective glyco-epitope.
as §2

CHO/PAR-2 cells [4] = test: Lectin labeling of live cells, CHO/PAR-2; assay type: cell-based; details: TRITC-lectin, 10 nM at maximum
Method: as §1, §2

U2OS cells = test: Specificity control with competing monosaccharide on fixed cells; assay type: cell-based, human; details: excess of inhibitory monosaccharide
Method: as §3

U2OS/ETAR-GFP cells [5] = test: Lectin labeling of fixed cells, U2OS/ETAR-GFP; assay type: cell-based, human; details: TRITC-lectin 10 nM and 20 nM
Method: as §3, §2

CHO/ETAR cells [6] = test: Lectin labeling of live cells, CHO/ETAR; assay type: cell-based; details: TRITC-lectin, 10 nM at maximum
Method: as §1, §2

CHO/ETAR cells [7] = test: Lectin labeling of fixed cells, CHO/ETAR; assay type: cell-based; details: TRITC-lectin 10 nM and 20 nM
Method: as §3, §2

[8] = tested on: CHO/ETAR cell membrane protein; test: Lectin blotting of ETAR membrane sample; assay type: binding; details: biotinylated lectin 5 μg/ml
Method: (§4) Membrane preparation was conducted as follows: Cells were cultured in five T175 flasks until confluency. Confluent cells were detached by applying 3 ml of EDTA solution onto the PBS washed cells. Following a 20-minute incubation at 37° C. and 5% CO2, cells were resuspended in 12 ml of starvation medium (standard medium without FCS), counted, and centrifuged in a Heraeus Megafuge 1.0R at 133 rcf for 4 minutes. All subsequent steps were carried out on ice and with ice cold solutions. After unification of all pellet fractions, hypotonic lysis buffer was added to the cells at a ratio of 1 ml per 5*10^7 cells. Additionally, protease inhibitor cocktail was added to 50 μl per 5*10^7 cells. Cells were homogenized with 30 strokes in a 5 ml potter on ice, centrifuged at 4° C. and 917 rcf for 10 minutes, and the supernatant was stored in an ultracentrifuge tube on ice. The pellet fraction was homogenized and centrifuged once again as described above. The supernatants of both procedures were unified and centrifuged at 4° C. and 100,000 rcf for 45 minutes in a Sorvall ultra-centrifuge. The supernatant of this centrifugation procedure was withdrawn and the pellet dissolved in 0.5 ml or 1.0 ml modified SDS PAGE loading buffer containing Tris-HCl, SDS, glycerol, but no β-mercapto-ethanol or dyes and stored in small aliquots of 50 μl at −20° C.
SDS-Page of membrane samples was conducted as follows: Discontinuous 12% polyacrylamide gels were prepared according to a standard protocol. Broad range marker and 25 μg membrane protein were mixed 1:1 with loading buffer and loaded five times onto a mini gel in alternating order. The gels were run at U=100 V for the first 20 minutes. Subsequently, voltage was increased to U=150 V. The run was aborted as soon as the pyronin G band reached the end of the gel. For coomassie staining, gels were put in coomassie staining solution on a shaker at low revolutions for 45 min. The staining solution was removed and the gel incubated with destaining solution for one to two hours, exchanging the solution several times until the desired contrast was obtained. […]

U2OS/ETAR-GFP cells [9] = test: Serum supplements (insulin) in live cell labeling; assay type: cell-based, human; details: 20 nM in assay medium in labeling and chase incubations
Method: For serum supplements in live cell labeling, starvation was carried out in Opti-MEM medium (11058; Gibco—Invitrogen, Karlsruhe, Germany). The following labeling and chase incubations were conducted in assay medium with a 20 nM insulin supplement.

[10] = tested on: CHO/PAR-2 cell membrane protein; test: Lectin blotting of PAR-2 membrane sample; assay type: binding; details: biotinylated lectin 5 μg/ml
Method: as §4
SDS-Page of membrane samples was conducted as follows: Discontinuous 12% polyacrylamide gels were prepared according to a standard protocol. Broad range marker and 25 μg membrane protein were mixed 1:1 with loading buffer and loaded five times onto a mini gel in alternating order. The gels were run at U=100 V for the first 20 minutes. Subsequently, voltage was increased to U=150 V. The run was aborted as soon as the pyronin G band reached the end of the gel. For coomassie staining, gels were put in coomassie staining solution on a shaker at low revolutions for 45 min. The staining solution was removed and the gel incubated with destaining solution for one to two hours, exchanging the solution several times until the desired contrast was obtained.
Blotting of membrane samples was conducted as follows: For blotting, 3 mm packs of Whatman papers were extensively soaked in one of the diverging blotting buffers, AB I, AB II, and CB, and a pile was assembled in a semi-dry Trans-Blot 3D system from Bio-Rad as depicted in the sketch of FIG. 2. Hybond nitrocellulose membrane was submerged in AB II prior to assembly. To smooth out any air bubbles from the pile, a Pasteur pipette was rolled several times over the top layer. The apparatus was closed and ran at U=25 V for 45 minutes. Then, the pile was disassembled, the membrane submerged in Ponceau S solution and gently swayed for 2 minutes. For destaining, ddH2O was substituted for the staining solution, and the membrane was briefly rinsed twice. After drying under ambient conditions, the marker bands were marked with a ballpoint-pen. The membrane was cut into slices each displaying one marker and one sample lane.
Probing of membrane samples was conducted as follows: For classical western blotting, membranes were blocked in PBS containing 5% low fat dried milk powder. They were placed on a rotating shaker at low revolutions for 1 hour. Subsequently, membranes were sealed in plastic bags with blocking solution additionally containing 1 μg/ml anti-PAR-2 antibody (1:400) or 0.5 μg/ml of anti-ETAR antibody (1:500), depending on the respective recombinant cell type used for the sample. […]

U2OS/ETAR-GFP cells [11] = test: Effect of lectin incubation on morphology of live cells; assay type: cell-based, human; details: 5 nM, 10 nM, and 20 nM versus the control
Method: as §1

Row | Substance | Live cell staining of U2OS/ETAR-GFP (U2OS/ETAR-GFP cells [2]) | Staining of CHO/PAR-2 (CHO/PAR-2 cells [3]) | Live cell staining of CHO/PAR-2 (CHO/PAR-2 cells [4]) | fluorescent signal in the presence of the competing monosaccharide (U2OS cells) | Staining of U2OS/ETAR-GFP (U2OS/ETAR-GFP cells [5]) | Live cell staining of CHO/ETAR (CHO/ETAR cells [6]) | Staining of CHO/ETAR (CHO/ETAR cells [7]) | other results
1 | β-methyl-cyclodextrin |  |  |  |  |  |  |  | spot formation of sWGA signal under inhibition of raft-dependent pathways (U2OS/ETAR-GFP cells [1]; 5 mM in leveling medium, cholesterol extraction): did not impede the typical spot formation
2 | Phaseolus vulgaris leucoagglutin [PHA-L] | spot formation | signals clearly marking individual cells; also recorded: cell surface | strong signal contrast between the relatively unstained nucleus area and its fluorescing perimeter; also recorded: spot formation | reduced | extensive fluorescence was observed at the cell surface | cell surface, sequestered | cell surface | stability of fluorescence signal over time (live cells): fairly stable signals
3 | Pisum sativum agglutin [PSA] | spot formation | reduced intensity with a high background; also recorded: weak cell surface |  |  | extensive fluorescence was observed at the cell surface |  |  | band at the same height as in the western (47 kDa, anti-ETAR) [8]: could clearly be detected
4 | porcine insulin |  |  |  |  |  |  |  | effect on spot formation of sWGA signal (U2OS/ETAR-GFP cells [9]): complete suppression of spot formation
5 | Phaseolus vulgaris erythroagglutin [PHA-E] | spot formation | signals clearly marking individual cells; also recorded: cell surface | strong signal contrast between the relatively unstained nucleus area and its fluorescing perimeter; also recorded: spot formation | reduced | extensive fluorescence was observed at the cell surface | cell surface, sequestered | cell surface | stability of fluorescence signal over time (live cells): fairly stable signals
6 | Lens culinaris agglutin [LCA] | spot formation | reduced intensity with a high background; also recorded: weak cell surface | spot formation |  | extensive fluorescence was observed at the cell surface | fluorescence accumulation in the form of tiny points around the cell boundaries; also recorded: cell boundary, points | cell surface | band at the same height as the western band (55 kDa, anti-PAR-2) [10]: one of them matching the height of the western band; bands detected above 35 kDa ([10]; exposure one to five minutes): four
7 | Alexa-Fluor® 488-transferrin: Human holo-transferrin-Alexa Fluor 488 conjugate, standard marker of the clathrin-mediated pathway |  |  |  |  |  |  |  | signals of clathrin-mediated pathway marker (U2OS/ETAR-GFP cells [1]; 5 μg/ml, all conditions but inhibition of the clathrin-dependent pathway): detected in the perinuclear region
8 | Sophora japonica agglutin [SJA] | medium sized, scattered spots |  |  | reduced | only several little, spot-like signals on each cell; also recorded: weak spots on cell |  |  | effect on U2OS/ETAR-GFP cells, phase contrast (U2OS/ETAR-GFP cells [11]): Irritating effect
9 | Griffonia (Bandeiraea) simplicifolia lectin [GSL-I] | signal points were significantly smaller and less; also recorded: small, scattered | reduced intensity with a high background; also recorded: weak cell surface |  |  | very faint signal covering only some single cells; also recorded: weak single cell |  |  | 
